In one data set the target is T1, CETP (Homo sapiens, UniProt P11597).
T1 sequence (P11597 18-493): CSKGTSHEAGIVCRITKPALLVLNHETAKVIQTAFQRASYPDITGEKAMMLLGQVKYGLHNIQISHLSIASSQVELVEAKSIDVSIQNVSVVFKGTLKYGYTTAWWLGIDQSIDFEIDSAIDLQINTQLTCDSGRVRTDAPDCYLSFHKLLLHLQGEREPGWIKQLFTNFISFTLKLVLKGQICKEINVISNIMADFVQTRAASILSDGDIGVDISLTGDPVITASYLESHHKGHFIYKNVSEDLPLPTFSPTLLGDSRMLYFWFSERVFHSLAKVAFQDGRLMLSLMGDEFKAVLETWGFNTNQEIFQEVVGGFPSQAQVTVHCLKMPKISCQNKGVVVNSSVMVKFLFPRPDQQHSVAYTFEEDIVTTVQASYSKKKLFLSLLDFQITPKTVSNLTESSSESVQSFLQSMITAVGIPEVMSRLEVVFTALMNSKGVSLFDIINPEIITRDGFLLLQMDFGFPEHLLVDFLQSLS
Kind of data set: Determination of CETP inhibition activity (fluorescent donor/acceptor transfer). The settings on record: Concentration of compounds 500 μM; read-out: CETP inhibition activity Inhibition rate(%). It is filed as biochemical. On the procedure:
A mixture containing 3 μl of a donor, 9 μl of an acceptor (250 μg protein), 3 μl of CETP solution and 85 μl of an analytic buffer, 10 mM Tris, 0.15 M NaCl and 2 mM EDTA, pH 7.4 was incubated at 37° C. for 0.5 hours, the fluorescence intensity was determined on Victor 3 double illuminometer/fluorescence counter (Perkin Elmer) carrying […] light wave length.

The next data set has as its target T2, PLTP (Homo sapiens, UniProt P55058).
T2 construct: from tissue
In words: Determination of PLTP inhibition activity (radiolabelled phospholipid liposome to HDL transfer with plasma). The settings on record: for inhibition at 150 µM: Concentration of compounds 150 μM; for inhibition at 150 µM / inhibition at 250 µM: read-out: PLTP inhibition activity Inhibition rate(%); for inhibition at 250 µM: Concentration of compounds 250 μM. It is filed as biochemical. On the procedure: 30 μl (about 1000 cpm/μl) phospholipids liposome, 30 μl HDL ([…]), 337 μl TSE and 3 μl plasma were mixed, incubated in 37° C. water-bath for 1 hour, and then added 300 μl of a settling solution (50 ml solution preparation: 5.36 ml 5N NaCl, 9.075 ml 2M MnCl2 and 46 mg liver phospholipid were mixed, added water to 50 ml), the solution was stood at room temperature for 10 minutes, rotated at high speed for 10 minutes (to remove phospholipids liposome), 500 μl of the supernatant was sampled and counted. PLTP activity (cpm/h/3 μl)=sample cpm-background cpm.

T2 sequence (P55058 18-493, species assumed): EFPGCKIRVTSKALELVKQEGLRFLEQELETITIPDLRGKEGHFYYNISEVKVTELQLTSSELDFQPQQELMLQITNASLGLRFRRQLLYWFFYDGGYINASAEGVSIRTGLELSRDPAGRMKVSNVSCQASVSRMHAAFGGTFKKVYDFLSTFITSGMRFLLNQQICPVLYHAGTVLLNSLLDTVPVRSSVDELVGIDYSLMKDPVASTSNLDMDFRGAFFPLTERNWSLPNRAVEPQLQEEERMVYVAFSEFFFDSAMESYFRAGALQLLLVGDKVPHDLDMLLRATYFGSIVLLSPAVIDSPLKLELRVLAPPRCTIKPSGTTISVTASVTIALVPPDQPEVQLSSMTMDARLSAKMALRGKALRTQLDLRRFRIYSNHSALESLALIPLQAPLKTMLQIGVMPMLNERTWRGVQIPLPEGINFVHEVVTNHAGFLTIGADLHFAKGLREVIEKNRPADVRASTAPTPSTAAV

In the case of `O=C(Nc1nc(-c2ccc(O)cc2)c(Cc2ccccc2)s1)c1ccc(Cl)cc1` [Example 8, N-[5-benzyl-4-(4-hydroxy-phenyl)-thiazol-2-yl]-4-chloro-benzamide], the melting point was 109 to 110 °C. On CETP, the inhibition at 500 µM is 80.4%. On PLTP, the inhibition at 150 µM amounted to 0%.

For `O=C(Nc1nc(-c2ccc(O)cc2)c(Cc2ccccc2)s1)c1ccc(O)c(O)c1` [Example 19, N-[5-benzyl-4-(4-hydroxy-phenyl)-thiazol-2-yl]-3,4-dihydroxy-benzamide], the melting point was 240 to 241 °C. On CETP, the inhibition at 500 µM was 19.4%. Further, on PLTP, 70 µM corresponded to half-maximal inhibition (IC50) and the inhibition at 250 µM came to 79.8%.

Take `COc1ccc(-c2nc(N)sc2Cc2ccc(F)cc2)cc1` [Example 21, 5-(4-fluoro-benzyl)-4-(4-methoxy-phenyl)-thiazol-2-ylamine]: the melting point lay in the range of 199 to 201 °C. The inhibition at 500 µM at CETP was determined as 52.8%. The inhibition at 250 µM at PLTP is 11.5%.

`O=C(Nc1nc(-c2ccc(F)cc2)c(Cc2ccc([N+](=O)[O-])cc2)s1)c1ccc(O)c(O)c1` [Example 31, N-[4-(4-fluoro-phenyl)-5-(4-nitro-benzyl)-thiazol-2-yl]-3,4-dihydroxy-benzamide] registered a melting point of 276 to 278 °C. The inhibition at 500 µM at CETP turned out to be 0%. Also, on PLTP, 75 µM corresponded to half-maximal inhibition (IC50) and the inhibition at 250 µM worked out at 100%.

In the case of `O=C(Nc1nc(-c2ccccc2)c(Cc2ccc([N+](=O)[O-])cc2)s1)c1ccc(O)c(O)c1` [Example 32, 3,4-dihydroxy-N-[5-(4-nitro-benzyl)-4-phenyl-thiazol-2-yl]-benzamide], the inhibition at 500 µM on CETP amounted to 0%. Besides, on PLTP, it took 75 µM to reach half-maximal inhibition (IC50) and the inhibition at 250 µM worked out at 100%.

As for `O=C(Nc1nc(-c2ccc(O)cc2)c(Cc2ccc(F)cc2)s1)c1ccc(O)c(O)c1` [Example 33, N-[5-(4-fluoro-benzyl)-4-(4-hydroxy-phenyl)-thiazol-2-yl]-3,4-dihydroxy-benzamide], the melting point was in the range of 154 to 155 °C. For the same compound, the inhibition at 500 µM on CETP came to 9.2%. Also, on PLTP, the IC50 came out at 100 µM and the inhibition at 250 µM was determined as 73.2%.

The compound `O=C(Nc1nc(-c2ccc(O)cc2)c(Cc2ccc([N+](=O)[O-])cc2)s1)c1ccc(O)c(O)c1` [Example 34, 3,4-dihydroxy-N-[4-(4-hydroxy-phenyl)-5-(4-nitro-benzyl)-thiazol-2-yl]-benzamide] registered a melting point of 195 to 196 °C. Besides, the inhibition at 500 µM on CETP was 30.4%. For the same compound, on PLTP, half-maximal inhibition (IC50) required 100 µM and the inhibition at 250 µM was 67.6%.

For `O=C(Nc1nc(-c2ccc(O)cc2)c(Cc2ccccc2)s1)c1ccc(O)cc1O` [Example 38, N-[5-benzyl-4-(4-hydroxy-phenyl)-thiazol-2-yl]-2,4-dihydroxy-benzamide], the melting point lay in the range of 217 to 219 °C. Further, at CETP, the inhibition at 500 µM came out at 88%. Also, the inhibition at 150 µM on PLTP came to 11.5%.

`COc1ccc(C(=O)Nc2nc(-c3ccc(O)cc3)c(Cc3ccccc3)s2)cc1` [Example 40, N-[5-benzyl-4-(4-hydroxy-phenyl)-thiazol-2-yl]-4-methoxy-benzamide] displayed a melting point of 124 to 125 °C. The inhibition at 500 µM on CETP was 71.6%. In addition, the inhibition at 150 µM on PLTP is 0%.

As to `O=C(Nc1nc(-c2ccc(O)cc2)c(Cc2ccccc2)s1)c1cc(O)c(O)c(O)c1` [Example 41, N-[5-benzyl-4-(4-hydroxy-phenyl)-thiazol-2-yl]-3,4,5-trihydroxy-benzamide], the melting point fell in the range of 245 to 246 °C. Besides, on CETP, the inhibition at 500 µM was determined as 44.1%. Also, at PLTP, the midpoint of inhibition, the IC50, lay at 15 µM and the inhibition at 150 µM worked out at 89.4%.

With `COc1ccc(-c2nc(N)sc2CC2CCCCC2)cc1` [Example 47, 5-cyclohexylmethyl-4-(4-methoxy-phenyl)-thiazol-2-ylamine], the melting point was 118 to 119 °C. At CETP, the inhibition at 500 µM came to 79.8%. Also, at PLTP, the inhibition at 150 µM worked out at 0%.

Regarding `O=C(Nc1nc(-c2ccc(O)cc2)c(CC2CCCCC2)s1)c1ccc(O)c(O)c1` [Example 49, N-[5-cyclohexylmethyl-4-(4-hydroxy-phenyl)-thiazol-2-yl]-3,4-dihydroxy-benzamide], the melting point is 133 to 134 °C. Besides, the inhibition at 500 µM on CETP amounted to 6%. Further, on PLTP, 35 µM corresponded to half-maximal inhibition (IC50) and the inhibition at 150 µM was found to be 81.6%.

`O=C(Nc1nc(-c2ccc(O)cc2)c(CC2CCCCC2)s1)c1cc(O)c(O)c(O)c1` [Example 51, N-[5-cyclohexylmethyl-4-(4-hydroxy-phenyl)-thiazol-2-yl]-3,4,5-trihydroxy-benzamide] gave a melting point of 238 to 239 °C. Also, the inhibition at 500 µM at CETP stood at 20.9%. Also, on PLTP, it took 18 µM to reach half-maximal inhibition (IC50) and the inhibition at 250 µM was determined as 100%.

`Cc1sc(NC(=O)c2cc(O)c(O)c(O)c2)nc1-c1ccc(O)cc1` [Example 55, 3,4,5-trihydroxy-N-[4-(4-hydroxy-phenyl)-5-methyl-thiazol-2-yl]-benzamide] had a melting point of 262 to 263 °C. For the same compound, the inhibition at 500 µM on CETP came out at 85.9%. Moreover, the inhibition at 250 µM on PLTP was found to be 10.7%.

For the compound `Cc1sc(NC(=O)c2ccc(O)c(O)c2)nc1-c1ccc(O)cc1` [Example 56, 3,4-dihydroxy-N-[4-(4-hydroxy-phenyl)-5-methyl-thiazol-2-yl]-benzamide], on CETP, the inhibition at 500 µM amounted to 58.7%. Moreover, at PLTP, the 50% inhibitory concentration (IC50) was determined as 75 µM and the inhibition at 250 µM was 71.9%.

As for `COc1ccc(-c2nc(N)sc2CCc2ccccc2)cc1` [Example 57, 4-(4-methoxy-phenyl)-5-phenylethyl-thiazol-2-ylamine], the melting point lay in the range of 143 to 144 °C. Besides, the inhibition at 500 µM on CETP came out at 75.8%. Also, the inhibition at 250 µM at PLTP is 24%.

Compound `COc1ccc(-c2nc(NC(=O)c3ccc(OC)c(OC)c3)sc2CCc2ccccc2)cc1` [Example 58, 3,4-dimethoxy-N-[4-(4-methoxy-phenyl)-5-phenylethyl-thiazol-2-yl]-benzamide] returned a melting point of 74 to 75 °C.

The compound `COc1ccc(-c2nc(NC(=O)c3cc(OC)c(OC)c(OC)c3)sc2CCc2ccccc2)cc1` [Example 59, 3,4,5-trimethoxy-N-[4-(4-methoxy-phenyl)-5-phenylethyl-thiazol-2-yl]-benzamide] came in with a melting point of 78 to 79 °C.

As to `CCCCc1sc(NC(=O)c2ccc(OC)c(OC)c2)nc1-c1ccc(OC)cc1` [Example 63, N-[5-n-butyl-4-(4-methoxy-phenyl)-thiazol-2-yl]-3,4-dimethoxy-benzamide], the melting point was 150 to 151 °C.

In the case of `CCCCc1sc(NC(=O)c2cc(OC)c(OC)c(OC)c2)nc1-c1ccc(OC)cc1` [Example 64, N-[5-n-butyl-4-(4-methoxy-phenyl)-thiazol-2-yl]-3,4,5-trimethoxy-benzamide], the melting point lay in the range of 197 to 198 °C.

`COc1ccc(-c2nc(N(S(=O)(=O)c3ccc(C)cc3)S(=O)(=O)c3ccc(C)cc3)sc2Cc2ccccc2)cc1` [Example 67, N-[5-benzyl-4-(4-methoxy-phenyl)-thiazol-2-yl]-N-p-tolylsulfonyl-p-tolylsulfonamide]: the melting point is 182 to 183 °C.

Turning to `COc1ccc(-c2nc(NC(=O)CCc3ccc(OC)c(OC)c3)sc2Cc2ccccc2)cc1` [Example 68, N-[5-benzyl-4-(4-methoxy-phenyl)-thiazol-2-yl]-3-(3,4-dimethoxy-phenyl)-propanamide], the melting point is 142 to 143 °C.

In turn, `COc1ccc(-c2nc(N(CCO)CCO)sc2Cc2ccccc2)cc1` [Example 73, 2-[[5-benzyl-4-(4-methoxy-phenyl)-thiazol-2-yl]-(2-hydroxy-ethyl)-amino]-ethanol] showed a melting point of 119 to 120 °C.

Compound `Oc1ccc(-c2nc(N3CCNCC3)sc2Cc2ccccc2)cc1` [Example 75, 4-(5-benzyl-2-piperazin-4-yl-thiazol-4-yl)-phenol] yielded a melting point of 222 to 223 °C.

Consider `OCCN(CCO)c1nc(-c2ccc(O)cc2)c(Cc2ccccc2)s1` [Example 76, 4-(5-benzyl-2-[bis-(2-hydroxy-ethyl)-amino]-thiazol-4-yl)-phenol], for which the melting point was 167 to 168 °C.

Regarding `Oc1ccc(-c2nc(CCc3ccc(O)c(O)c3)sc2Cc2ccccc2)cc1` [Example 78, 4-{2-[5-benzyl-4-(4-hydroxy-phenyl)-thiazol-2-yl]-ethyl}-benzene-1,2-diol], the melting point was 177 to 178 °C.

One may read the melting point as the temperature of the solid-liquid transition. In general, inhibition refers to the relative decrease from the control value, in per cent. By IC50 is commonly meant the concentration at which inhibition is half-maximal. Read a high IC50 as lower potency.

Values taken from US8053581B2, “Trisubstituted thiazole compounds, preparations methods, pharmaceutical compositions and medicals uses thereof” (Institute of Pharmacology and Toxicology Academy of …, priority 2006, dated 2011).
